Test [1] addresses T1, human serotonin transporter (hSERT) (Homo sapiens, UniProt P31645).
T1 construct: expressed in transfected cells; host or cells: HEK-293
The test can be described thus: Screening for human serotonin transporter (hSERT) antagonists using a scintillation proximity assay, competition with [3H]-Citalopram. The format is binding. To be noted: hSERT SPA, membranes of HEK-293 cells expressing recombinant hSERT. As to the method:
The screening assay of this example was used to determine the affinity of ligands at the hSERT transporter by competition with [^3H]-Citalopram.
Scintillation Proximity Assay (SPA) works by bringing radioligand within close proximity to the bead's scintillant to stimulate light emission. In this assay, the receptor-containing membranes were pre-coupled to the SPA beads and the binding of the appropriate radioligand to the transporter was measured. The light emission was proportional to the amount of bound radioligand. Unbound radioligand produced no signal as a result of distant proximity to scintillant (lack of energy transfer). […]
(§1) Cell membranes were prepared using a membrane preparation buffer of 50 mM TRIS (pH 7.4). […] After a second centrifugation, the pellet was re-homogenized and brought to a final volume determined during the assay. […]
The % inhibition was calculated for each compound tested [(Compound counts per minute (CPM) at maximum concentration-Non-Specific CPM)/Total CPM*100]. […]
[formula] where max=total binding, min=non specific binding, x=concentration (M) of the tested compound and n=Hill slope. The inhibition dissociation constant (Ki) of each compound was determined according to the method of Cheng-Prusoff and then converted into negative logarithm (pKi) of the Ki.
For orientation: Scintillation proximity formats need no separation of bound from free tracer.

Test [2] addresses T2, human norepinephrine transporter (hNET) (Homo sapiens, UniProt P23975).
T2 construct: expressed in transfected cells; host or cells: HEK-293 (Clone: HEK-hNET #2)
Briefly: Screening for compounds active at human norepinephrine transporter (hNET) using a scintillation proximity assay, competition with [3H]-Nisoxetine. The class given is binding. Particulars: hNET SPA, membranes of HEK-293 cells expressing recombinant hNET. As to the method: This assay was used to determine the affinity of ligands for the hNET transporter by competition with [^3H]-Nisoxetine. As in the hSERT assay of the above example, receptor-containing membranes were pre-coupled to the SPA beads and the binding of the appropriate radioligand to the transporter was measured. The light emission was proportional to the amount of bound radioligand, with unbound radioligand producing no signal.
HEK-293 cells (Tatsumi et al., Eur. J. Pharmacol. 1997, 30, 249-258) stably expressing recombinant hNET (Clone: HEK-hNET #2) were maintained with media (DMEM hi glucose with 10% FBS, 300 μg/ml G418 and 2 mM L-Glutamine) and incubated at 37° C. with 5% CO2. Cells were released from culture flasks using PBS for 1-2 minutes. […]
as §1
^3[H] […] The mixtures were allowed to stand at room temperature for one hour, and were then counted on a Packard TopCount LCS, a generic SPA counting protocol settings (Energy Range: Low, Efficiency Mode: Normal, Region A: 1.50-35.00, Region B: 1.50-256.00, Count Time (min.): 0.40, Background Subtract: none, Half-Life Correction: no, Quench Indicator: tSIS, Platemap blank subtraction: No, Cross talk reduction: Off). […]

Structures are written as SMILES.

This is an account of results in patent US7638517B2, “3-Amino-1-arylpropyl azaindoles and uses thereof” (Roche Palo Alto LLC, priority 2005, dated 2009).

The term IC50 denotes the midpoint of a concentration-inhibition curve.

T1 sequence (P31645 whole entry): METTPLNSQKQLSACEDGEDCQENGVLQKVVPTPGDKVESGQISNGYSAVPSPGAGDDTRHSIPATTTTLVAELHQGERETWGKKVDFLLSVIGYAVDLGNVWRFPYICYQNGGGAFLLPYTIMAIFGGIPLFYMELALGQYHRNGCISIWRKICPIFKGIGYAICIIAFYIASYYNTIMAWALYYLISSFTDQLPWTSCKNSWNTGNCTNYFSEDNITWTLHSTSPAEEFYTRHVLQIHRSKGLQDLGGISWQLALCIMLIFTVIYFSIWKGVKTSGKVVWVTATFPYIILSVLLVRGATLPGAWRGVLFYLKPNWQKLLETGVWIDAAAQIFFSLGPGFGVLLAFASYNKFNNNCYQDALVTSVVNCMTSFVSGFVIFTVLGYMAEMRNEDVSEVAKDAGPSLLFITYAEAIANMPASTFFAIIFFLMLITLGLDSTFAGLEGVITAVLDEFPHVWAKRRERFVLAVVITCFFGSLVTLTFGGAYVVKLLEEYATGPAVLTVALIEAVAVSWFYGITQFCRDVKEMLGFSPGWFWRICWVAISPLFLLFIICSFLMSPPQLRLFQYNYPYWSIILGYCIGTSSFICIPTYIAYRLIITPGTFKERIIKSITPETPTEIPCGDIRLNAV
T2 sequence (P23975 whole entry): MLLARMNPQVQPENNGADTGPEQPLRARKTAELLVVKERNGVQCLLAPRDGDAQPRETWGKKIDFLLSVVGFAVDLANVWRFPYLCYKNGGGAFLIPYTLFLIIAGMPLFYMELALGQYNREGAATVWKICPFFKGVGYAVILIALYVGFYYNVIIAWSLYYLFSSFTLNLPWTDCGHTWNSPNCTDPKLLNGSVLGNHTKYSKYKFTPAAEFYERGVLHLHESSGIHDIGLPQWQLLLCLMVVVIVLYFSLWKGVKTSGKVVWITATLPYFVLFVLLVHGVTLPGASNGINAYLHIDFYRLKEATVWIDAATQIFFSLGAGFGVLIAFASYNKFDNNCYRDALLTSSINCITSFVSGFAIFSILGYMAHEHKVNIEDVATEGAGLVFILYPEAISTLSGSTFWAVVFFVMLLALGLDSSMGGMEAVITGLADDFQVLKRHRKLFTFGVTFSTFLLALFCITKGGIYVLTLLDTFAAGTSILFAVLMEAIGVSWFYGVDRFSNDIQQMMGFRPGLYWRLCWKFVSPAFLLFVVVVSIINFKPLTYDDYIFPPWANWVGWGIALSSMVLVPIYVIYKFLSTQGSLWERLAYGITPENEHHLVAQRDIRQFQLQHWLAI

Consider `CNCC[C@@H](c1ccccc1)c1c[nH]c2nccc(OC)c12` [compound 23, [(S)-3-(4-Methoxy-1H-pyrrolo[2,3-b]pyridin-3-yl)-3-phenyl-propyl]-methyl-amine], for which the IC50 in test [1] is about 1.78 nM; in test [2] it was about 17.8 nM.
